These are literature values, as cited in patent US20080166406A1, “Rapidly Disintegrating Dosage Form Comprising Magnesium Carbonate Heavy” (priority 2005, published 2008).

Molecules are shown by their SMILES.

For the series the following is noted: water, neutral pH, acidic pH; general statement.

Take `Cc1cc2c(s1)Nc1ccccc1N=C2N1CCN(C)CC1` [Olanzapine]: the Solubility result was “insoluble in water and neutral pH but more soluble at acidic pH”.
